The numbers were not newly measured in patent US20040191214A1, “Nucleoside vaccine adjuvants” (priority 2001, published 2004), which cites them from elsewhere.

The test system of this data set is lymphocyte. The settings on record: stated as known; see U.S. Pat. Nos. 6,130,326, 6,063,772, 5,767,097 to Tam.
Regarding `Cl.N=C(N)c1cn([C@@H]2O[C@H](CO)[C@@H](O)[C@H]2O)c2nc[nH]c(=O)c12` [7-(β-D-ribofuranosyl)pyrrolo[2,3-d]4-pyrimidone-5-carboxamidine*HCl], the “stimulation of Type 1 or Type 2 (cytokine) response” value (“stimulation” below) was “stimulate a Type 2 response”. For the compound `NC(=O)c1ncn([C@H]2O[C@@H](CO)[C@H](O)[C@@H]2O)n1` [Levovirin, 1-beta-L-ribofuranosyl-1,2,4-triazole-3-carboxamide], the “stimulation” value is given as “stimulate a Type 1 response”. Regarding `NC(=O)c1ncn([C@@H]2O[C@H](CO)[C@@H](O)[C@H]2O)n1` [Ribavirin, 1-beta-D-ribofuranosyl-1,2,4-triazole-3-carboxamide], the “stimulation” value is “stimulate a Type 1 response”. In the case of `N=C(N)c1ncn([C@@H]2O[C@H](CO)[C@@H](O)[C@H]2O)n1` [Viramidine, 1-beta-D-ribofuranosyl-1,2,4-triazole-3-carboxamidine], the “stimulation” value is given as “stimulate a Type 1 response”.
